Assay results: publication PMC6934184, “Selective DNA-PKcs inhibition extends the therapeutic index of localized radiotherapy and chemotherapy” (The Journal of Clinical Investigation, 2019)

Molecular target: T1, AMPK A2/B1/G1 (Homo sapiens, UniProt P54646)
T1 construct: purchased Thermo Fisher Scientific (Life Technologies) SelectScreen
Test: SelectScreen Z'LYTE
Type: biochemical
How it was run: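 SelectScreen broad panel; activity (Z'LYTE, Adapta) plus binding formats. ATP: Km app for CSF1R Z'LYTE; 10 for CAMK1 Adapta. Readout = % per kinase.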

T1 sequence (P54646 whole entry): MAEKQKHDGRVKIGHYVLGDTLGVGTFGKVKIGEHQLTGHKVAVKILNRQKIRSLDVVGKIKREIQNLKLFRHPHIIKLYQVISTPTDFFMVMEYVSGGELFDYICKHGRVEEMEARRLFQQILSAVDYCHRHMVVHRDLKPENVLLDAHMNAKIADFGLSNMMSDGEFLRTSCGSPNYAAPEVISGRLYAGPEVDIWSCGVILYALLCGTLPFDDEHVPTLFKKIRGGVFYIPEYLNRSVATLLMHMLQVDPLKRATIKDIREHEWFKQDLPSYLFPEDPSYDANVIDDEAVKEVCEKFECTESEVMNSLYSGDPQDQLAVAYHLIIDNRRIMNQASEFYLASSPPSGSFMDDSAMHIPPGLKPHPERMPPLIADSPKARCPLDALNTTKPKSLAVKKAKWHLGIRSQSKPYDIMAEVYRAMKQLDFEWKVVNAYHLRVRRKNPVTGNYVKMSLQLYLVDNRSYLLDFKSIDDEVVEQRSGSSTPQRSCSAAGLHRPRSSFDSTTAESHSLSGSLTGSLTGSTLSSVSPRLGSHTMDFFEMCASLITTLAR
T1 sequence (Q9Y478 whole entry partner): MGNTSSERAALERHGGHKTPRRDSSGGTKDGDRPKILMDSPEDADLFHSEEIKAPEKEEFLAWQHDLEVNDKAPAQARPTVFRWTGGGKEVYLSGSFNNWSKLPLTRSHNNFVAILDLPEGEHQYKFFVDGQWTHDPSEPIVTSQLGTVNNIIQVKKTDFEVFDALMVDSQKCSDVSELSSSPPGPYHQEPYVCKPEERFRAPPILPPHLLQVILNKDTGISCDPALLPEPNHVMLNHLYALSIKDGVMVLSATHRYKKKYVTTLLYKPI
T1 sequence (P54619 whole entry partner): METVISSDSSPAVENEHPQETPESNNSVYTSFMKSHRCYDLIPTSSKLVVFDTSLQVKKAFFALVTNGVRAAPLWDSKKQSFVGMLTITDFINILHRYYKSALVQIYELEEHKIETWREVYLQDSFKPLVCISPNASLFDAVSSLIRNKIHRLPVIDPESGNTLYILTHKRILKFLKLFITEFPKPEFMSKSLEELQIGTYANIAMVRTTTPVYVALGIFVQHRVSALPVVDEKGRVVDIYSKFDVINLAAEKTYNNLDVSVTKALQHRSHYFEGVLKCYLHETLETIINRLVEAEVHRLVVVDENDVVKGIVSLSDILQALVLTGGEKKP

In the case of CN(C(=O)CN1CCOCC1)c1ccc2sc3c(-c4cccc5c(=O)cc(N6CC7CCC(C6)O7)oc45)cccc3c2c1 [NU5455], the inhibition at 1 µM is reported as 2.6%.
